Measured values taken from article PMC8388125, “Kinetic and Structural Characterization of the Self-Labeling Protein Tags HaloTag7, SNAP-tag, and CLIP-tag” (Biochemistry, 2021).
Changes are numbered by the printed parent chain. “And” between values parts separate entries of the source, which are not always exact repeats. Equal entries are not always repeated.

Tests used:
SNAP^C145A = target: T1, SNAP^C145A (Homo sapiens, UniProt P16455, A127T/A154D/C145A/C150Q/C62A/G131K/G132T/G153L/K125A/K32I/L33F/M134L/N157G/Q115S/Q116H/R128A/R135S/S151G/S152D/S159E); test: Affinity of SNAP^C145A for nonfluorescent substrates via FP competition assay against CP-TMR; type: binding; details: for Kd: FP competition against CP-TMR, room temperature
T1 construct: made in house; host or cells: E. coli BL21(DE3)-pLysS
T1 sequence (P16455 1-182 K32I/L33F/C62A/Q115S/Q116H/K125A/A127T/R128A/G131K/G132T/M134L/R135S/C145A/C150Q/S151G/S152D/G153L/A154D/N157G/S159E limits assumed): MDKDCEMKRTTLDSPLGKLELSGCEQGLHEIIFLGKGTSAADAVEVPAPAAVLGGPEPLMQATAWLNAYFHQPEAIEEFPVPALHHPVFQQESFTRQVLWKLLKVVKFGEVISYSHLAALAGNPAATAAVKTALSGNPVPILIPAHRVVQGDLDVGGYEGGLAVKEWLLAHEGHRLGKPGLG
Method: Binding affinities of SNAP^C145A for BG, CP, BG-Ac, CP-Ac, and BC-Ac were obtained as previously described for HT7 by titrating 5 μM protein and 50 nM CP-TMR against nonfluorescent substrate concentrations ranging from 150 nM to 1.5 mM. Experimental conditions and data analysis were identical despite the fact that 1 mM DTT was added to the buffer and the assay was performed at room temperature.

HT7^D106A = target: T2, HT7^D106A (Rhodococcus sp., UniProt P59336, A155T/A167V/A224E/C128F/C176G/D106A/D78G/E160K/E257K/G292T/H272N/K175M/K195N/L47V/L88M/N227D/P291S/S2A/S58T/T264A/V172T/Y273L/Y87F); test: Affinity of HT7^D106A for CA substrates by fluorescence polarization; type: binding
T2 construct: made in house; host or cells: E. coli BL21(DE3)-pLysS
T2 sequence (P59336 other isoform, or with tags, fused parts or gaps with the stated changes): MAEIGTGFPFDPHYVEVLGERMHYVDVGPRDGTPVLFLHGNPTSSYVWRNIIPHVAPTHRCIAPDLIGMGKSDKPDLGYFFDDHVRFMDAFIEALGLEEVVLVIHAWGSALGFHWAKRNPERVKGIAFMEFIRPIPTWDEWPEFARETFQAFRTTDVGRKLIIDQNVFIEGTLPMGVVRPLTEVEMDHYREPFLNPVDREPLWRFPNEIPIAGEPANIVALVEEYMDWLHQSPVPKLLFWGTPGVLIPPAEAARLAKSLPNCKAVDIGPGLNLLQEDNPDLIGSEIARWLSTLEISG
Method: Binding affinities of HT7^D106A or HOB^D106A for chloroalkane (CA) substrates were determined by fluorescence polarization (FP, eq 1) measurements using a microplate reader (Spark20M, Tecan Group AG, Männedorf, Switzerland). The fluorescent substrates (10 nM) were titrated against different protein concentrations (0–250 μM) in activity buffer supplemented with 0.5 g/L bovine serum albumin (BSA). Assays were performed in black low-volume nonbinding 384-well plates (Corning Inc., Corning, NY) with a final volume of 20 μL. Obtained FP values were averaged and fitted to a single-site binding model (eq 2) to estimate Kd values for each fluorescent substrate. The FP value of each dye fully reacted with the native HT7 was used to improve fitting of the upper plateau of the curves by adding an extra data point at a protein concentration of 0.1 M. [drawing 1] 1 where FP is the fluorescence polarization, I∥ is the fluorescence intensity parallel to the excitation light polarization, I⊥ is the fluorescence intensity perpendicular to the excitation light polarization, and G is the grating factor (G = I∥/I⊥). [drawing 2] 2 where FPmin is the fluorescence polarization of the free fluorophore (lower plateau), FPmax is the maximal fluorescence polarization of fully bound fluorophore (upper plateau), Kd is the dissociation constant, and [protein] is the protein concentration.
Free binding energies were calculated from Kd values according to eq 4: [drawing 4] 4 where ΔG is the free binding energy, R is the universal gas constant, T is the temperature, and Kd is the dissociation constant.

HaloTag7 (HT7) = target: T3, HaloTag7 (HT7) (Rhodococcus sp., UniProt P59336, A155T/A167V/A224E/C128F/C176G/D78G/E160K/E257K/G292T/H272N/K175M/K195N/L47V/L88M/N227D/P291S/S2A/S58T/T264A/V172T/Y273L/Y87F); test: HT7 labeling kinetics via stopped flow (fluorescence anisotropy); type: biochemical
T3 construct: made in house; host or cells: E. coli BL21(DE3)-pLysS
T3 sequence (P59336 other isoform, or with tags, fused parts or gaps with the stated changes): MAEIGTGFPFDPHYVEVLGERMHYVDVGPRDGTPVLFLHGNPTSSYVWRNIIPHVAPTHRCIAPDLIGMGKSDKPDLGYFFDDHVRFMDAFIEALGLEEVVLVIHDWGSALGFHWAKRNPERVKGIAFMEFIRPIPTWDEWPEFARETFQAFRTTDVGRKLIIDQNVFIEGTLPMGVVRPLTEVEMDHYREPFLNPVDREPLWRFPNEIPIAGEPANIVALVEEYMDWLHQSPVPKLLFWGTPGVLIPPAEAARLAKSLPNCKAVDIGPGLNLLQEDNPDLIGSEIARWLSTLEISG
Method: Labeling kinetics of HT7 with CA-TMR, CA-JF549, CA-CPY, CA-LIVE580, and CA-JF669 and labeling kinetics of HOB with CA-TMR were measured by recording fluorescence anisotropy changes over time using a BioLogic SFM-400 stopped-flow instrument (BioLogic Science Instruments, Claix, France) in a single-mixing configuration at 37 °C. HT7 protein and substrates in activity buffer were mixed in a 1:1 stoichiometry to reach a recordable speed for these fast reactions and to increase the information content of the traces. Concentrations were varied from 0.125 to 1 μM. The anisotropy of the free substrate was measured to obtain a baseline.
(§1) Kinetic stopped-flow data were preprocessed using a custom R script.[36],[37] Recorded pretrigger time points were removed, and time points were adjusted to start at time zero. Values from replicates were averaged. The anisotropy of the free dye was calculated by averaging anisotropy values of the baseline measurements. Preprocessed data were fitted to a kinetic model (eqs 5 and 6) described by differential eqs 7–10 using the DynaFit software.[38] The anisotropy of the free dye and the mixing delay of the stopped-flow machine were set as fixed offset and delay parameters in DynaFit. It was assumed that the protein substrate complex and the reacted product are contributing equally to the anisotropy signal. […] Standard deviations (normal distribution verified) and confidence intervals of fitted parameters were estimated with the Monte Carlo method[39] with standard settings (N = 1000, 5% worst fits discarded). In the case of SNAP kinetics with BG-TMR, the substrate concentration was fitted by DynaFit to rule out quantification errors of the BG-quenched fluorophore. Accurate fitting of the concentration was ensured by including conditions in which protein is limiting and no maximum FP value was reached.

SNAP-tag (SNAP) [1] = target: T4, SNAP-tag (SNAP) (Homo sapiens, UniProt P16455, A127T/A154D/C150Q/C62A/G131K/G132T/G153L/K125A/K32I/L33F/M134L/N157G/Q115S/Q116H/R128A/R135S/S151G/S152D/S159E); test: SNAP competitive labeling kinetics against BG-Alexa488; type: biochemical; details: nonfluorescent substrates, competition with BG-Alexa488
T4 construct: made in house; host or cells: E. coli BL21(DE3)-pLysS
T4 sequence (P16455 1-182 K32I/L33F/C62A/Q115S/Q116H/K125A/A127T/R128A/G131K/G132T/M134L/R135S/C150Q/S151G/S152D/G153L/A154D/N157G/S159E limits assumed): T1 sequence (P16455 1-182 K32I/L33F/C62A/Q115S/Q116H/K125A/A127T/R128A/G131K/G132T/M134L/R135S/C145A/C150Q/S151G/S152D/G153L/A154D/N157G/S159E limits assumed) with A145C
Method: Competitive kinetics were measured by recording FP over time using a microplate reader in a manner analogous to that for HT7 competition kinetics described above using 100 nM BG-Alexa488 as the fluorescent substrate in SNAP-FP buffer.
Data were fitted to a simplified kinetic competition model (eqs 19 and 20) described by differential eqs 21–25 using DynaFit. The dead time of the measurements and baseline FP value were put in as fixed parameters. Standard deviations (normal distribution verified) and confidence intervals of fitted parameters were estimated with the Monte Carlo method with standard settings (N = 1000, 5% worst fits discarded). [drawing 19] 19 [drawing 20] 20 where P is the SLP protein, S is the fluorescent SLP substrate, I is the nonfluorescent SLP substrate (inhibitor), PS is the protein–fluorescent substrate conjugate, and PI is the protein–nonfluorescent substrate conjugate. [drawing 21] 21 [drawing 22] 22 [drawing 23] 23 [drawing 24] 24 [drawing 25] 25

CLIP-tag (CLIP) = target: T5, CLIP-tag (CLIP) (Homo sapiens, UniProt P16455, A121V/A127T/A154D/C150Q/C62A/G131N/G132T/G153S/K125A/K32I/L33F/M134L/M60I/N157P/Q115S/Q116H/R128A/R135D/S151G/S152D/S159L/Y114E); test: CLIP labeling kinetics via microplate reader (FP over time); type: biochemical; details: CLIP, plate reader, kinetic model 1
T5 construct: made in house; host or cells: E. coli BL21(DE3)-pLysS
T5 sequence (P16455 1-182 K32I/L33F/M60I/C62A/Y114E/Q115S/Q116H/A121V/K125A/A127T/R128A/G131N/G132T/M134L/R135D/C150Q/S151G/S152D/G153S/A154D/N157P/S159L limits assumed): T1 sequence (P16455 1-182 K32I/L33F/C62A/Q115S/Q116H/K125A/A127T/R128A/G131K/G132T/M134L/R135S/C145A/C150Q/S151G/S152D/G153L/A154D/N157G/S159E limits assumed) with M60I, Y114E, A121V, K131N, S135D, A145C, L153S, G157P, E159L
Method: (§2) Labeling kinetics of SNAP and CLIP substrates were measured by recording FP over time using a microplate reader in a manner analogous to that of HT7 labeling kinetics described above with the following changes. The fluorescent substrate concentration was fixed to 20 nM, and protein concentrations were varied from 15 to 900 nM. Measurements were performed in SNAP-FP buffer.
(§3) Kinetic data from microplate reader assays were fitted to a simplified kinetic model (eq 13) described by differential eqs 14–16 using DynaFit. The dead time of the measurements and baseline FP value were put in as fixed parameters. Standard deviations (normal distribution verified) and confidence intervals of fitted parameters were estimated with the Monte Carlo method with standard settings (N = 1000, 5% worst fits discarded). In the case of BG, CP, and BC kinetics, the substrate concentration was fitted by DynaFit to rule out quantification errors of the BG, CP, or BC fluorophores. Accurate fitting of the concentration was ensured by including conditions under which protein is limiting and no maximum FP value was reached.

SNAP-tag (SNAP) [2] = target: T4, SNAP-tag (SNAP); test: SNAP labeling kinetics via microplate reader (FP over time); type: biochemical; details: SNAP, plate reader, kinetic model 1
Method: as §2, §3

[3] = target: T6, hAGT (human O^6-alkylguanine-DNA alkyltransferase) (Homo sapiens, UniProt P16455); test: hAGT labeling kinetics via microplate reader (FP over time); type: biochemical
T6 construct: StrepTag-II (N); enterokinase cleavage site (N); His10 (C); made in house; host or cells: E. coli BL21(DE3)-pLysS
T6 sequence (P16455 1-207): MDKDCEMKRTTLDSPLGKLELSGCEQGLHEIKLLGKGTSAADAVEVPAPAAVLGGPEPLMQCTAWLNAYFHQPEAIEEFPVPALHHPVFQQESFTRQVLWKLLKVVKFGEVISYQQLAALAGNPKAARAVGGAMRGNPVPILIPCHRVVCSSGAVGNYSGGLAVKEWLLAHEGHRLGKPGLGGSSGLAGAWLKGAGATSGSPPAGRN
Method: as §2, §3

SNAP-tag (SNAP) [4] = target: T4, SNAP-tag (SNAP); test: SNAP labeling kinetics via stopped flow (fluorescence anisotropy); type: biochemical; details: model 2
Method: Labeling kinetics of SNAP with BG-TMR were measured via stopped-flow in a manner analogous to that for HT7 kinetics described above; however, the final substrate concentration was fixed at 2 μM, and the protein concentration was varied from 1.875 to 50 μM. The activity buffer was supplemented with 1 mM DTT.
as §1

`CC(=O)NCc1ccc(COc2nccc(N)n2)cc1` [BC-Ac] was tested, and the “times lower affinity than for BG-Ac” value (SNAP^C145A) was 5 times and the Kd (SNAP^C145A) was 416 µM.

For `CN(C)c1ccc2c(-c3ccc(C(=O)NCCOCCOCCCCCCCl)cc3C(=O)[O-])c3ccc(=[N+](C)C)cc-3oc2c1` [CA-5-TMR], the Kd (HT7^D106A) was 39.4 µM.

For `CN(C)c1ccc2c(c1)C(C)(C)C1=CC(=[N+](C)C)C=CC1=C2c1cc(C(=O)NCCOCCOCCCCCCCl)ccc1C(=O)[O-]` [CA-CPY, chloroalkane-PEG-carbopyronine], the “fold decrease in affinity of the 5-substituted compared to the 6-substituted rhodamine substrate” value (HT7^D106A; HT7^D106A) was 22.7 fold, the Kd (HaloTag7 (HT7)) was 0.046 µM and the “k2 (± S.D.)” value (HaloTag7 (HT7); HT7, stopped flow, model 2) was 9.9 s-1 and 9.86 (± 0.73) s-1. The “k-1 (± S.D.)” value (HaloTag7 (HT7); HT7, stopped flow, model 2) was 7.60 (± 0.98) s-1.

In the case of `CC(=O)NCc1ccc(COc2cc(Cl)nc(N)n2)cc1` [CP-Ac], the “kapp (value ± standard deviation)” value (SNAP-tag (SNAP) [1]) is reported as “(3.45 ± 0.38) × 10^3 M^–1 s^–1” and the Kd (SNAP^C145A) is reported as 201 µM.

`CN(C)c1ccc2c(-c3cc(C(=O)NCc4ccc(COc5cc(Cl)nc(N)n5)cc4)ccc3C(=O)[O-])c3ccc(=[N+](C)C)cc-3oc2c1` [CP-TMR] was tested, and the “kapp (value ± standard deviation)” value (CLIP-tag (CLIP)) was “(7.22 ± 0.04) × 10^0 M^–1 s^–1”, the “kapp (value ± standard deviation)” value (SNAP-tag (SNAP) [2]) was “(7.69 ± 0.01) × 10^4 M^–1 s^–1” and the “times slower labeling of hAGT than of SNAP” value ([3]; hAGT vs SNAP) was 20 times. For the same compound, the “kapp (value ± standard deviation)” value ([3]; hAGT, plate reader, model 1) was “(3.13 ± 0.01) × 10^3 M^–1 s^–1”, the “fold higher k–1 than BG-TMR” value (SNAP-tag (SNAP) [4]) was 8.8 fold and the “k2 (± S.D.)” value (SNAP-tag (SNAP) [4]) was 1.58 (± 0.04) s-1. The “k-1 (± S.D.)” value (SNAP-tag (SNAP) [4]) was 8.96 (± 0.71) s-1.
